The text below walks through data of ChEMBL document CHEMBL4359834 (J Med Chem, 2019).

A short description of data set [1]: Inhibition of Class 1 PI3K/mTOR in human A2058 cells assessed as reduction in Akt phosphorylation at Ser473 residue incubated for 1 hr by InCell Western assay. Type of data set: cell-based. The note with it: A2058, 1 h.
The target in data set [2] is Phosphatidylinositol 4,5-bisphosphate 3-kinase catalytic subunit alpha isoform (Homo sapiens, UniProt P42336). Description: Displacement of Alexafluor labelled kinase tracer314 from recombinant N-terminal His6-tagged PI3K p110alpha (unknown origin) incubated for 1 hr by FRET-based LanthaScreen Eu kinase binding assay. Background: Time-resolved FRET reads energy transfer from a long-lived donor to a nearby acceptor.
Phosphatidylinositol 4,5-bisphosphate 3-kinase catalytic subunit alpha isoform, sequence (P42336 whole entry, canonical isoform): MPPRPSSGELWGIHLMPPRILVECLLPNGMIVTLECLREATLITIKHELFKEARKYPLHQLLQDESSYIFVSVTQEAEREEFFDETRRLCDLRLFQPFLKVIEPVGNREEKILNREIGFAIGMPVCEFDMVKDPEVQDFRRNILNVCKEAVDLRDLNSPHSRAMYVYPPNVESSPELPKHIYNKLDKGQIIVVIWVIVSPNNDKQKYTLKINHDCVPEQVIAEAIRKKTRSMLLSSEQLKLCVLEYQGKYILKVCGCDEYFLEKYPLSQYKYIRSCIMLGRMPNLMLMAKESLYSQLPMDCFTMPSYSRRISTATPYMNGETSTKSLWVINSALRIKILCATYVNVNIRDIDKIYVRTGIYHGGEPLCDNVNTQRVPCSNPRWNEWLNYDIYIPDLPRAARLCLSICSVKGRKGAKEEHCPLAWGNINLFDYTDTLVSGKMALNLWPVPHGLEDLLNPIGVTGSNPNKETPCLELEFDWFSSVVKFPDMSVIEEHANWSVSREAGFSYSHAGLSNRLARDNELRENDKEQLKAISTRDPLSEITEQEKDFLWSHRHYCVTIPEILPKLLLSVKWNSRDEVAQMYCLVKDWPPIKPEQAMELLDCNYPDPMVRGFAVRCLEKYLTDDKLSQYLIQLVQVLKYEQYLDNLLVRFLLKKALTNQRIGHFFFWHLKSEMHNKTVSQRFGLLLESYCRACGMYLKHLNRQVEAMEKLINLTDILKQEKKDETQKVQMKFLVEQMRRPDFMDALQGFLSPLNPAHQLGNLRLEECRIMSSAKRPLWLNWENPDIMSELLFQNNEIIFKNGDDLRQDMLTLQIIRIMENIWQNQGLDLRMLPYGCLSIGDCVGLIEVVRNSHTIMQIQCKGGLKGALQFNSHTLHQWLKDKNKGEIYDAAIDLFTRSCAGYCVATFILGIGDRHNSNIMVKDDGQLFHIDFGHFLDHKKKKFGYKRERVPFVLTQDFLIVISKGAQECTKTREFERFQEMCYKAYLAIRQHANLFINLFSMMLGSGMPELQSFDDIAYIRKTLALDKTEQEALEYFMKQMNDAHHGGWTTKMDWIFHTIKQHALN

In data set [3] the target is Serine/threonine-protein kinase mTOR (Homo sapiens, UniProt P42345). Kind of data set: Displacement of Alexafluor labelled kinase tracer314 from recombinant human C-terminal GST-tagged mTOR (1360 to 2549 amino acids) expressed in insect cells incubated for 1 hr by FRET-based LanthaScreen Eu kinase binding assay.
A short description of the next data set: cells. The note with it: Homo sapiens, A2058, 1 h.
Data set [4] can be described thus: Intrinsic clearance in human hepatocytes assessed per 10^6 cells. Type of data set: ADME, cell-based, Hepatocyte. The note with it: read-out: CLH.
Data set [5] in a line: Intrinsic clearance in rat hepatocytes assessed per 10^6 cells. The note with it: read-out: CLH. The format is ADME, cell-based, Hepatocyte.
Data set [6] in a line: Intrinsic clearance in dog hepatocytes assessed per 10^6 cells. Conditions: read-out: CLH. The format is ADME, cell-based, Canis lupus familiaris, Hepatocyte.
Data set [7] in a line: Intrinsic clearance in mouse hepatocytes assessed per 10^6 cells. Type of data set: ADME, cell-based, Hepatocyte. The note with it: read-out: CLH.
A short description of data set [8]: Half-life clearance in human hepatocytes. The format is ADME, cell-based, Hepatocyte.
A short description of data set [9]: Half-life in rat hepatocytes. Type of data set: ADME, cell-based, Hepatocyte.
The nature of data set [10]: Half-life in dog hepatocytes. The format is ADME, cell-based, Canis lupus familiaris, Hepatocyte.
The nature of data set [11]: Half-life in mouse hepatocytes. Type of data set: ADME, cell-based, Hepatocyte.
Another data set concerns A2058. Kind of data set: Antiproliferative activity against human A2058 cells at 5 to 0.02 uM after 72 hrs by […] staining based assay. The format is functional, cell-based.
Another data set deals with SK-OV-3. Description: Antiproliferative activity against human SKOV3 cells at 5 to 0.02 uM after 72 hrs by […] staining based assay. The format is functional, cell-based.

Molecules are shown by their SMILES. Calls of active or inactive are those of the source. No cut-off for these calls is given here.

Description for cells: Inhibition of Class 1 PI3K/mTOR in human A2058 cells assessed as reduction in S6 phosphorylation at Ser235/236 residue incubated for 1 hr by InCell Western assay

Broadly, the IC50 is the concentration that inhibits the measured activity by half. What is called Ki is a measure of affinity in units of concentration, obtained from inhibition or displacement. In the case of `C[C@H]1COC[C@H](C)N1c1nc(-c2cnc(N)cc2C(F)(F)F)nc(N2CCOCC2)n1`, the IC50 in data set [1] was determined as 100 nM; in “cells”, 126 nM. Also, the Ki was found to be 15.2 nM in data set [2] and 59.2 nM in [3].
With `Nc1cc(C(F)(F)F)c(-c2nc(N3CCOCC3)nc(N3CC4CCC(C3)O4)n2)cn1`, the figures for the IC50 (in [1]; in “cells”) were 274 nM and 212 nM, respectively. Moreover, the results for the Ki in data set [2] and in data set [3] were 31 nM and 47.8 nM, respectively.
For the compound `C[C@H]1COCCN1c1cc(-c2cnc(N)nc2C(F)F)nc(N2CCOCC2)n1`, the values for the IC50 (in data set [1]; in the data set “cells”) were 99.6 nM and 387 nM, respectively. In addition, the Ki in data set [2] stood at 2 nM; in data set [3], 192 nM.
One may read the half-life as how long it takes for the measured level to halve. Lower therefore signals fast loss. For `O=c1ccc2ccc(O)cc2o1` [UMBELLIFERONE], the hepatocyte CLint in [4] is 65.5 µL/min/1e6 cells; in data set [5], 124 µL/min/1e6 cells; in data set [6] it was 138 µL/min/1e6 cells; in [7], 116 µL/min/1e6 cells. In addition, the half-life worked out at 21.1 min in data set [8], 11.1 min in data set [9], 10.2 min in data set [10] and 11.9 min in data set [11].
As to `C[C@@H]1COC[C@H](C)N1c1nc(-c2cnc(N)cc2C(F)(F)F)nc(N2CCOCC2)n1`, the results for the IC50 (in data set [1]; in “cells”) were 122 nM and 135 nM, respectively. Also, the Ki in [2] worked out at 27.4 nM; in [3], 19.3 nM.
As to `Nc1cc(C(F)(F)F)c(-c2nc(N3C4CCC3COC4)nc(N3C4CCC3COC4)n2)cn1`, the IC50 in data set [1] was determined as 755 nM; in the data set “cells” it was 299 nM. In addition, the Ki in data set [2] worked out at 4640 nM; in data set [3], 76.8 nM.
As for `CCOc1ccc2ccc(=O)oc2c1`, the hepatocyte CLint in data set [4] came to 20 µL/min/1e6 cells; in [5] it was 30 µL/min/1e6 cells; in data set [6], 163 µL/min/1e6 cells; in [7], 74 µL/min/1e6 cells. For the same compound, the half-life worked out at 70 min in data set [8], 46.2 min in [9], 8.49 min in data set [10] and 18.7 min in data set [11].
For `C[C@H]1COCCN1c1nc(-c2cnc(N)nc2C(F)F)nc(N2CCOCC2)n1`, the IC50 was found to be 32.4 nM in [1] and 63.9 nM in the data set “cells”. In addition, the inhibitory constant (Ki) in [3] is 10.6 nM.
As for `C[C@@H]1COC[C@H](C)N1c1nc(-c2cnc(N)cc2C(F)(F)F)nc(N2[C@H](C)COC[C@@H]2C)n1`, the figures for the IC50 (in [1]; in the data set “cells”) were 567 nM and 437 nM, respectively. Besides, the Ki was 31.4 nM in data set [2] and 39.6 nM in [3].
As for `Nc1cc(C(F)(F)F)c(-c2nc(N3CCOCC3)nc(N3C4CCC3COC4)n2)cn1`, the figures for the IC50 (in [1]; in “cells”) were 420 nM and 156 nM, respectively. The Ki was 19.9 nM in data set [2] and 43.1 nM in data set [3].
For `C[C@@H]1COC[C@@H](C)N1c1nc(-c2cnc(N)cc2C(F)(F)F)nc(N2[C@H](C)COC[C@H]2C)n1` the same measures were more than 20000 nM, 14500 nM, more than 20000 nM and 1890 nM.
For `C[C@H]1COCCN1c1nc(-c2cnc(N)nc2C(F)(F)F)nc(N2CCOCC2)n1` the same measures were 91 nM, 164 nM, 4 nM and 37.9 nM.
For `C[C@H]1COCCN1c1nc(-c2cnc(N)nc2C(F)F)cc(N2CCOCC2)n1` the same measures were 77.3 nM, 146 nM, 4.1 nM and 15.3 nM.
`C[C@@H]1COCCN1c1nc(-c2cnc(N)cc2C(F)(F)F)nc(N2CCOCC2)n1`: the values for the IC50 (in [1]; in “cells”) were 373 nM and 410 nM, respectively. Moreover, the Ki in [2] was found to be 53.7 nM; in [3], 109 nM.
`C[C@H]1COC[C@H](C)N1c1nc(-c2cnc(N)cc2C(F)(F)F)nc(N2[C@@H](C)COC[C@@H]2C)n1`: the values for the IC50 (in data set [1]; in “cells”) were 610 nM and 531 nM, respectively. In addition, the Ki in data set [2] amounted to 37 nM; in data set [3], 265 nM.
For `C[C@H]1COCCN1c1cc(-c2cnc(N)cc2C(F)F)nc(N2CCOCC2)n1`, the IC50 in data set [1] turned out to be 614 nM; in “cells”, 766 nM. Also, the Ki is 13.7 nM in data set [2] and 42.3 nM in [3].
Take `Nc1cc(C(F)(F)F)c(-c2nc(N3CCOCC3)nc(N3CCOCC3)n2)cn1`: the outcome in the data set with A2058 and in the data set with SK-OV-3 was Active.
Regarding `C[C@H]1COCCN1c1nc(-c2cnc(N)cc2C(F)(F)F)nc(N2CCOC[C@@H]2C)n1`, the IC50 in data set [1] is 248 nM; in “cells”, 283 nM. In addition, the Ki in data set [2] was found to be 6.8 nM; in data set [3] it was 137 nM.
Taken in the same sequence, the figures for `C[C@@H]1COCCN1c1nc(-c2cnc(N)cc2C(F)(F)F)nc(N2CCOC[C@H]2C)n1` were 1700 nM, 1120 nM, 684 nM and 171 nM.
`Nc1cc(C(F)(F)F)c(-c2nc(N3CC4CCC(C3)O4)nc(N3CC4CCC(C3)O4)n2)cn1`: the values for the IC50 (in data set [1]; in the data set “cells”) were 947 nM and 691 nM, respectively. Moreover, the Ki in data set [2] came out at 731 nM; in [3] it was 177 nM.
For `C[C@@H]1COC[C@@H](C)N1c1nc(-c2cnc(N)cc2C(F)(F)F)nc(N2CCOCC2)n1`, the IC50 in data set [1] is 435 nM; in the data set “cells”, 457 nM. Also, the Ki in data set [2] is 88.9 nM; in data set [3] it was 64.5 nM.
`C[C@H]1COCCN1c1nc(-c2cnc(N)cc2C(F)F)cc(N2CCOCC2)n1`: the figures for the IC50 (in [1]; in the data set “cells”) were 146 nM and 125 nM, respectively. The Ki in data set [3] was found to be 10 nM.
For the compound `C[C@H]1COCCN1c1nc(-c2cnc(N)cc2C(F)(F)F)nc(N2CCOCC2)n1`, the IC50 came to 196 nM in [1] and 89.8 nM in “cells”. In addition, the Ki in data set [2] was 8.3 nM; in data set [3], 25.5 nM.
